# Earlier results, collected in patent publication US6825040B2, “Method of using a vapor acid test kit” (Mainstream Engineering Corporation, priority 1995, dated 2004).
# Like-named read-outs stand apart in the source and are kept apart here.
# How the values were obtained:
# [1] = negative log of the dissociation equilibrium constant of the indicator
# [2] = pH range of the indicator colour change
SMILES,pKa [1],pH Range [2],pH Range ([2]; listed as Thymol blue)
O=C1OC(c2ccc(O)cc2)(c2ccc(O)cc2)c2ccccc21 [Phenolphthalein],9.4,8.0 to 10.0,–
"CN(C)c1ccc(/N=N/c2ccccc2C(=O)O)cc1 [Methyl red, o-Carboxybenzeneazodimethylaniline]",4.95,4.4 to 6.2,–
"O=S(=O)([O-])c1ccc(N=Nc2ccc(O)cc2O)cc1.[Na+] [Tropeolin 0, p-Sulfobenzeneazoresorcinol]",–,11.0 to 13.0,–
"O=S(=O)([O-])c1ccc(N=Nc2ccc(Nc3ccccc3)cc2)cc1.[Na+] [Tropeolin 00, Diphenylamino-p-benzene sodium sulfonate]",–,1.3 to 3.2,–
"Cc1cc(O)c(C(C)C)cc1C1(c2cc(C(C)C)c(O)cc2C)OS(=O)(=O)c2ccccc21 [Thymol blue (acid range), Thymolsulfonephthalein]",–,1.2 to 2.8,8.0 to 9.6
"Cc1c(C2(c3cc(C(C)C)c(O)c(Br)c3C)OS(=O)(=O)c3ccccc32)cc(C(C)C)c(O)c1Br [Bromothymol blue, Dibromothymolsulfonephthalein]",–,6.2 to 7.6,–
"CN(C)c1ccc(N=Nc2ccc(S(=O)(=O)[O-])cc2)cc1.[Na+] [Methyl orange, Dimethylaminoazobenzene sodium sulfonate]",3.40,3.1 to 4.4,–
"Cc1cc(C2(c3cc(C)c(O)c(Br)c3)OS(=O)(=O)c3ccccc32)cc(Br)c1O [Bromocresol purple, Dibromo-o-cresolsulfonephthalein]",–,5.2 to 6.8,–
"Cc1c(C2(c3cc(Br)c(O)c(Br)c3C)OS(=O)(=O)c3ccccc32)cc(Br)c(O)c1Br [Bromocresol green, Tetrabromo-m-cresolsulfonephthalein]",4.58,4.0 to 6.8,–
Cc1cc(O)c(C(C)C)cc1C1(c2cc(C(C)C)c(O)cc2C)OC(=O)c2ccccc21 [Thymolphthalein],10.0,9.4 to 10.6,–
"O=S1(=O)OC(c2ccc(O)c(Cl)c2)(c2ccc(O)c(Cl)c2)c2ccccc21 [Chlorophenol red, Dichlorophenolsulfonephthalein]",6.0,5.4 to 6.8,–
"O=S1(=O)OC(c2ccc(O)c(Br)c2)(c2ccc(O)c(Br)c2)c2ccccc21 [Bromophenol red, Dibromophenolsulfonephthalein]",–,5.2 to 6.8,–
